Experimental findings from ChEMBL document CHEMBL1667833, “Potent radiosensitizing agents: 5-methylselenyl- and 5-phenylselenyl-methyl-2'-deoxyuridine” (Bioorg Med Chem Lett, 2011) are described below.

Assay [1] deals with NCI-H460. The experiment in a line: Cytotoxicity against human H460 cells assessed as cell viability after 72 hrs by calorimetric assay. To be noted: NCI-H460, 72 h. The assay is classed as functional, cell-based.
Assay [2] deals with NCI-H460. Briefly: Potentiation of gamma-irradiation-induced cytotoxicity against human H460 cells assessed as dose enhancement ratio at 300 uM administered 24 hrs before 2-8 Gy irradiation measured after 12 days. The assay is classed as functional.
Assay [3] relates to NCI-H460. Briefly: Potentiation of gamma-irradiation-induced cytotoxicity against human H460 cells assessed as dose enhancement ratio at 50 uM administered 24 hrs before 2-8 Gy irradiation measured after 12 days. The assay is classed as functional.

In the case of `O=c1[nH]c(=O)n([C@H]2C[C@H](O)[C@@H](CO)O2)cc1C[Se]c1ccccc1`, the IC50 (usually the concentration that gives 50% inhibition) with NCI-H460 [1] was determined as 500 µM. The Ratio with NCI-H460 [2] came to 1.12.

For the compound `C[Se]Cc1cn([C@H]2C[C@H](O)[C@@H](CO)O2)c(=O)[nH]c1=O`, the IC50 in the assay with NCI-H460 [1] came out at 100 µM. In addition, the Ratio in the assay with NCI-H460 [3] is given as 1.2.
